Reference: patent US11439640B2, “Pharmaceutical composition comprising substance inhibiting enzymatic activity of peroxiredoxin 2 as effective ingredient for treatment of colorectal cancer” (EWHA UNIVERSITY-INDUSTRY COLLABORATION FOUNDATION, priority 2017, dated 2022)
Values belong to the compound of their own block, whether it stands above or below them. Residues, ends and D or L forms follow the SMILES beside them. *: point of attachment. Cbz = O=C(OCc1ccccc1)*

Tests used:
[1] = tested on: Axin1-related destruction complex; experiment: Co-immunoprecipitation of Axin1-related destruction complex; format: cell-based, human; details: SW480 cells; FIG. 34
Method: (§1) For immunoprecipitation, purified cell lysates (0.5-1 mg of proteins) were removed in advance with 30 μL of protein-A/G Sepharose 4 Fast Flow beads (Amersham Biosciences) for one hour.
(§2) Supernatants (cultures floating on the surface) were incubated with 3 μg of an appropriate antibody overnight, and then, precipitated by mixing with 30 μL of protein-A/G beads at 4° C. for three hours.
(§3) Then, the beads were washed three times with 1 mL of lysis buffer, followed by in vitro PARP analysis or immunoblotting.

[2] = tested on: RKO cells; experiment: Colony forming assay in RKO cells; format: cell-based, human; details: APC wild-type CRC cells
[3] = tested on: HT29 cells; experiment: Colony forming assay in HT29 cells; format: cell-based, human; details: APC-mutant CRC cells
[4] = tested on: SW480 cells; experiment: Colony forming assay in SW480 cells; format: cell-based, human; details: APC-mutant CRC cells
[5] = target: T1, recombinant human PrxI (Homo sapiens, UniProt Q06830); experiment: Peroxiredoxin (peroxidase) assay, PrxI; format: biochemical
T1 sequence (Q06830 1-199): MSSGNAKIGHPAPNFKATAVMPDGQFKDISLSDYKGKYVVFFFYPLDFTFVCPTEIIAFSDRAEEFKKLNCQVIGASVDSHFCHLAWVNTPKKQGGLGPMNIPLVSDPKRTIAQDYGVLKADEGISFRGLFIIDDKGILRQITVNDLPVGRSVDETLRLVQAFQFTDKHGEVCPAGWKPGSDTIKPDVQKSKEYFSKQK
Method: The peroxidase assay was performed in a reaction mixture (200 μL) containing 250 μM NADPH, 1.5 μM yeast TR, 3 μM yeast Trx, a recombinant human Prx (PrxI (4.6 μM) and PrxII (16.4 μM)), and […] (pH 7.0) containing 1 mM EDTA, and […] H2O2.
The mixture (minus H2O2) was preincubated for 5 minutes in the presence or absence of Compounds 1 to 6 (100 μM), and then, the reaction was initiated by adding H2O2. NADPH oxidation was monitored at 30° C. for 5 minutes as the absorbance decreased near 340 nm using an Agilent UV8453 spectrophotometer (Hewlett Packard. USA). The initial reaction rate was calculated using the linear portion of the curve and indicated as the amount of oxidized NADPH per minute.

[6] = tested on: tumor xenograft derived from HT29; experiment: HT29 tumor xenograft in mice (luminescence imaging, tumor weight); format: in vivo, mouse; details: intraperitoneal, 286 μM in DMSO, from 6 days after cell injection, every 3 days; FIGS. 65 and 66
Method: In the case of a tumor xenograft model, the mice were anesthetized by the inhalation of isoflurane gas (N2O:O2/70%:30%) and subcutaneously injected with HT29-luc2 cells (2.5×10^5 cells) suspended in 200 μL of PBS. Compound 1 to Compound 6 (286 μM in DMSO) were intraperitoneal administered starting from 6 days after the cell injection and repeated every 3 days.
Bioluminescent imaging was performed with IVIS Lumina Series III (Perkin Elmer). For each image photographing session, luciferin suspended in PBS (150 mg of luciferin/kg body weight) was administered intraperitoneally according to the manufacturer's protocol.
Up to four animals were maintained in the integral anesthetic manifold equipment and they were imaged 10 minutes after luciferin injection. The IVIS imaging system collects the photographic images of mice and quantitative bioluminescent signals therefrom and then allows them to overlap with each another.

[7] = tested on: TNKS; details: FIG. 40
Method: (§4) Immunocomplex-bound beads were incubated at 25° C. for 30 minutes in 40 μL of assay buffer (50 mM Tris-HCl, pH 8.0, 4 mM MgCl2) containing 4 μCi of γ-^32[P]-NAD^+. The reaction was stopped by adding 2×SDS sample buffer. The sample was boiled and separated using an SDS denaturing gel.
(§5) The gel was dried under vacuum and radiographed on an imaging plate. Radioactivity recorded on the plate was read and quantified by Fujifilm Bio-imaging Analyzer System (BAS)-3000.

[8] = target: recombinant TNKS1 PARP domain (amino acids of 1023-1327) (Homo sapiens, UniProt O95271); details: incubation with H2O2; FIG. 48
Method: as §4, §5

[9] = target: GST-TNKS1 PARP protein (Homo sapiens, UniProt O95271); details: 500 μM H2O2 for 30 minutes; FIG. 49
Method: Zinc ions were observed using 4-(2-pyridylazo) resorcinol (PAR) in an aqueous solution.
The GST-TANK1 PARP protein was incubated with 500 μM H2O2 for 30 minutes in 200 μL of 40 mM HEPES (pH 7.0) reaction buffer containing 0.1 mM PAR. The formation of a PAR2-Zn^2+ complex was monitored at 500 nm with a UV/VIS spectrophotometer (Agilent).
The total zinc content of the purified GST-TNKS1 PARP protein used in the assay was determined by adding 0.5 mM p-chloromercuribenzoic acid to a reaction mixture.

[10] = tested on: Axin1; experiment: Axin1 immunoprecipitation, PARsylation and ubiquitination blot; format: cell-based, human; details: cells of the control, HT29 and SW480
Method: as §1, §2, §3

Sequence of recombinant TNKS1 PARP domain (amino acids of 1023-1327) (O95271 1023-1327): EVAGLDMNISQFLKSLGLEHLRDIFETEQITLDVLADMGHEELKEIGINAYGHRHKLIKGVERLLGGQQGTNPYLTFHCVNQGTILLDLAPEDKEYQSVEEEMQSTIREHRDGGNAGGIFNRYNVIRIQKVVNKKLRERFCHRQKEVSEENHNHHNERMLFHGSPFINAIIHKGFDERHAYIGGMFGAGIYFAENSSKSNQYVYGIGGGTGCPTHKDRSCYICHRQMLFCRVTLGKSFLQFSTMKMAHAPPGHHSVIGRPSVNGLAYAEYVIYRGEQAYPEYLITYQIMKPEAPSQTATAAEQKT
Sequence of GST-TNKS1 PARP protein (O95271 1023-1327): as above

Compound: O=C1Nc2cc(Br)ccc2/C1=C1/Nc2ccccc2/C1=N\O [BIO]
phospho-β-catenin in the Axin1-related destruction complex [1]: disappeared

effect on initial rate of PrxI activity (in words) ([5]; 100 μM compound): not affected
inhibition at 100 µM ([5]; 100 μM compound, FIG. 63): ~50%
initial rate of PrxI activity ([5]; group treated with Conoidin A, 100 μM, control 263.7±45.4): 241.7 ± 21 nmol/min
Compound: [O-][n+]1c(CBr)c(CBr)[n+]([O-])c2ccccc21 [Compound 6, 2,3-bis(bromomethyl)quinoxaline 1,4-dioxide]
inhibition of proliferation (colony formation) of RKO cells [2]: not
inhibition of proliferation (colony formation) of HT29 cells [3]: sufficiently inhibited
inhibition of proliferation (colony formation) of SW480 cells [4]: sufficiently inhibited
tumor growth compared to the control [6]: significantly delayed

Compound: OO [Compound H2O2, hydrogen peroxide]
TNKS activity (PARP) in HT29 cells ([7]; HT29 cells): inhibited
TNKS activity (PARP) in SW480 cells ([7]; SW480 cells): inhibited
polyADP-ribosylation activity of TNKS1 PARP domain [8]: fully inactivated
TNKS1 PARP proteins that lost zinc ions [9]: ≥ 90%

Compound: CC(C)C[C@@H](C=O)NC(=O)[C@H](CC(C)C)NC(=O)[C@H](CC(C)C)NC(=O)OCc1ccccc1 [MG132] (Cbz-Leu-Leu-Leu-aldehyde)
PARsylated and ubiquitinated Axin1 [10]: induces the accumulation
